Consider 11 compounds from patent EP4471048A1, “PEPTIDE INHIBITORS OF INTERLEUKIN-23 RECEPTOR” (Zealand Pharma A/S, priority 2023, dated 2024).

For orientation: IC50 means the concentration that inhibits the measured activity by half. High values mean weaker potency in that assay, low ones greater potency in that assay.

This test concerns the target T1, human IL-23R (Homo sapiens, UniProt Q5VWK5).
T1 sequence (Q5VWK5 22-629): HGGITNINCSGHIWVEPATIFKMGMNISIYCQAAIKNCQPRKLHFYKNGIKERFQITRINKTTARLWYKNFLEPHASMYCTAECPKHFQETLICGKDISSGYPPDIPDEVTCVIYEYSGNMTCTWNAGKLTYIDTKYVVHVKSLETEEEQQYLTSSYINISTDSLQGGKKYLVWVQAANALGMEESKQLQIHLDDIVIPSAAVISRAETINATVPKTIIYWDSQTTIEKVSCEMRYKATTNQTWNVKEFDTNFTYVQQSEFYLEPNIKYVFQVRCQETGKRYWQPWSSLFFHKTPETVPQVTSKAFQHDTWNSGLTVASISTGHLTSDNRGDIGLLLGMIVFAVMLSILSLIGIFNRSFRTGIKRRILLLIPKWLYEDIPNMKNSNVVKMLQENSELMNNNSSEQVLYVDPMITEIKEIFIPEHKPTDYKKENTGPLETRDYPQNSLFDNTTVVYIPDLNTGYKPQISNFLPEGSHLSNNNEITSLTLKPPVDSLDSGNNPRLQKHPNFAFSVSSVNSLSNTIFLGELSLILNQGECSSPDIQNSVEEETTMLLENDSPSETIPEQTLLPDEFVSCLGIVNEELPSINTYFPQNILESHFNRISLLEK
In words: biochemical. The note with it: for Emax: read-out: % displacement (hIL-23R NIuc). Summed up: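 Membranes from HEK293 cells stably expressing Nluc-tagged human IL-23R were incubated 2 h at room temperature with test compound and a fluorophore-labelled tracer. After substrate addition, loss of BRET (TAMRA over luciferase emission) reported tracer displacement. A 4PL fit gave IC50 values.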

*1 amine or outer side, *2 acyl side, *3 side chain or, on linkers, in order; H or OH if unused. Where a SMILES comes first, the peptide text is derived from it. Bridges are numbered along the chain shown (N, C = ends). [ ]: non-standard residue; d: D form. hAad = O=C([C@H](CCCCC(=O)[*:3])N[*:1])[*:2]; 2Nal = N[C@@H](Cc1ccc2ccccc2c1)C(=O)O; AEF = NCCOc1ccc(C[C@H](N)C(=O)O)cc1; 3Pal = N[C@@H](Cc1cccnc1)C(=O)O; αMeL = CC(C)C[C@](C)(N)C(=O)O; dDab = NCC[C@@H](N)C(=O)O; Dab = NCC[C@H](N)C(=O)O

Turning to `CC[C@H](C)[C@@H]1NC(=O)[C@@H]2CCCCNC(=O)CC[C@@H](C(=O)NCCCCCCc3cccnc3)NC(=O)[C@](C)(C(C)C)NC(=O)[C@H](Cc3ccc4ccccc4c3)NC(=O)[C@H](Cc3ccc(OCCN)cc3)NC(=O)[C@H](CCC(=O)N2)NC(=O)[C@H](CCC(N)=O)NC(=O)[C@H](Cc2c[nH]c3ccccc23)NC(=O)[C@H](C(C)C)NC1=O` [Compound 29, K(1c)(6c)^†IVWQE(6c)[Y(2-aminoethoxy)][2-Nal][2-Me-Val]E(1c)-[NH-6-(pyridin-3-yl)hexanyl]], inhibition was half-maximal at 480 nM (IC50) and the Emax came out at 95%.

As for `CC(C)C[C@]1(C)NC(=O)[C@H](Cc2ccc3ccccc3c2)NC(=O)[C@H](Cc2ccc(OCCN)cc2)NC(=O)[C@@H]2CC(=O)N[C@H](CCNC(=O)CCCC[C@@H](C(=O)N[C@@H](CCN)C(=O)N[C@@H](Cc3cccnc3)C(N)=O)NC1=O)C(=O)N[C@@H]([C@@H](C)O)C(=O)N[C@@H](C(C)C)C(=O)N[C@@H](Cc1c[nH]c3ccccc13)C(=O)N[C@@H](CCC(N)=O)C(=O)N2` [Compound 9, [{d}Dab](1c)(6c)^†TVWQD(6c)[Y(2-aminoethoxy)][2-Nal][2-Me-Leu][2-Amino-6-carboxyhexanoyl](1 c)[Dab][3-(3-Pyridyl)-Ala]-[NH2]] ([dDab]TVWQD[AEF][2Nal][αMeL][hAad][Dab][3Pal]-NH2; lactam 1-10, N-6), the “% displacement (hIL-23R NIuc)” value was found to be 103% and half-maximal inhibition (IC50) was put at 0.52 nM.

Consider `CNC(=O)[C@H](Cc1cccnc1)NC(=O)[C@H](CCN)NC(=O)[C@@H]1CCC(=O)N[C@H]2CCCCNC(=O)CC[C@H](NC(=O)[C@H](CCC(N)=O)NC(=O)[C@H](Cc3c[nH]c4ccccc34)NC2=O)C(=O)N[C@@H](Cc2ccc(OCCN)cc2)C(=O)N[C@@H](Cc2ccc3ccccc3c2)C(=O)N[C@@](C)(CC(C)C)C(=O)N1` [Compound 102, [iso-Lys](1c)^t(6c)WQE(6c)[Y(2-aminoethoxy)][2-Nal][2-Me-Leu]E(1c)[Dab][3-(3-Pyridyl)-Ala]-[NHMe]] (KWQE[AEF][2Nal][αMeL]E[Dab][3Pal]-NHMe; lactam 1-4, N-8), for which the IC50 was determined as 4.5 nM and the Emax was 97%.

For `CC[C@H](C)[C@@H]1NC(=O)[C@@H]2CCCCNC(=O)CC[C@@H](C(=O)N[C@@H](CCN)C(=O)N[C@@H](Cc3cccnc3)C(=O)NC)NC(=O)[C@](C)(CC(C)C)NC(=O)[C@H](Cc3ccc4ccccc4c3)NC(=O)[C@H](Cc3ccc(OC)cc3)NC(=O)[C@H](CCC(=O)N2)NC(=O)[C@H](CCC(N)=O)NC(=O)[C@H](Cc2c[nH]c3ccccc23)NC(=O)[C@H](C(C)C)NC1=O` [Compound 35, K(1c)(6c)^†IVWQE(6c)[Y(Me)][2-Nal][2-Me-Leu]E(1c)[Dab][3-(3-Pyridyl)-Ala]-[NHMe]], 0.11 nM corresponded to half-maximal inhibition (IC50) and the Emax was found to be 98%.

For `CC(C)[C@@H]1NC(=O)[C@H]([C@@H](C)O)NC(=O)[C@@H]2CCCCNC(=O)CC[C@@H]3NC(=O)[C@H](CCNC(=O)[C@H](Cc4cccnc4)NC(=O)[C@H](CCN)NC3=O)NC(=O)[C@H](Cc3ccc4ccccc4c3)NC(=O)[C@H](Cc3ccc(OCCN)cc3)NC(=O)[C@H](CCC(=O)N2)NC(=O)[C@H](CCC(N)=O)NC(=O)[C@H](Cc2c[nH]c3ccccc23)NC1=O` [Compound 76, K(1c)(6c)^†TVWQE(6c)[Y(2-aminoethoxy)][2-Nal][Dab](7c)E(1c)[Dab][3-(3-Pyridyl)-Ala](7c)^‡] (KTVWQE[AEF][2Nal][Dab]E[Dab][3Pal]; lactam 1-10, 9-C, N-6), the IC50 stood at 3.7 nM and the Emax was found to be 92%.

Turning to `CNC(=O)[C@H](Cc1cccnc1)NC(=O)[C@H](CCN)NC(=O)[C@@H]1CCC(=O)NCCCC[C@@H]2C(=O)N[C@@H]([C@@H](C)O)C(=O)N[C@@H](Cc3c[nH]c4ccccc34)C(=O)N[C@@H](CCC(N)=O)C(=O)N[C@@H](CCc3cn2nn3)C(=O)N[C@@H](Cc2ccc(OCCN)cc2)C(=O)N[C@@H](Cc2ccc3ccccc3c2)C(=O)N[C@@](C)(CC(C)C)C(=O)N1` [Compound 42, [{d}(N3)-K](1c)(6g)^†TWQ[Hpg](6g)[Y(2-aminoethoxy)][2-Nal][2-Me-Leu]E(1c)[Dab][3-(3-Pyridyl)-Ala]-[NHMe]], the IC50 was determined as 1.9 nM and the Emax stood at 96%.

Regarding `COc1ccc(C[C@@H]2NC(=O)[C@@H]3CCC(=O)N[C@@H](CCCCNC(=O)CC[C@@H](C(=O)N[C@@H](CCCCNC(=O)c4ccccn4)C(N)=O)NC(=O)[C@](C)(CC(C)C)NC(=O)[C@H](Cc4ccc5ccccc5c4)NC2=O)C(=O)N[C@@H]([C@@H](C)O)C(=O)N[C@@H](C(C)C)C(=O)N[C@@H](Cc2c[nH]c4ccccc24)C(=O)N[C@@H](CCC(N)=O)C(=O)N3)cc1` [Compound 47, K(1c)(6c)^†TVWQE(6c)[Y(Me)][2-Nal][2-Me-Leu]E(1c)[K(piconilate)]-[NH2]], the IC50 stood at 730 nM and the Emax amounted to 99%.

Consider `CC[C@H](C)[C@@H]1NC(=O)[C@@H]2CCCCNC(=O)CC[C@@H](C(=O)NCCc3cccnc3)NC(=O)[C@](C)(C(C)C)NC(=O)[C@H](Cc3ccc4ccccc4c3)NC(=O)[C@H](Cc3ccc(OCCN)cc3)NC(=O)[C@@H](CCC(=O)N2)NC(=O)[C@H](CCC(N)=O)NC(=O)[C@H](Cc2c[nH]c3ccccc23)NC(=O)[C@H](C(C)C)NC1=O` [Compound 27, K(1c)(6c)^†VWQ[{d}E](6c)[Y(2-aminoethoxy)][2-Nal][2-Me-Val]E(1c)-[NH-2-(pyridin-3-yl)ethyl]], for which the “% displacement (hIL-23R NIuc)” value was 102% and the IC50 worked out at 110 nM.

With `CNC(=O)[C@H](Cc1cccnc1)NC(=O)[C@H](CCN)NC(=O)[C@@H]1CCC(=O)N[C@H]2CCNC(=O)CC[C@H](NC(=O)[C@H](CCC(N)=O)NC(=O)[C@H](Cc3c[nH]c4ccccc34)NC(=O)CNC2=O)C(=O)N[C@@H](Cc2ccc(OCCN)cc2)C(=O)N[C@@H](Cc2ccc3ccccc3c2)C(=O)N[C@@](C)(CC(C)C)C(=O)N1` [Compound 105, [iso-Dab](1c)^†(6c)GWQE(6c)[Y(2-aminoethoxy)][2-Nal][2-Me-Leu]E(1c)[Dab][3-(3-Pyridyl)-Ala]-[NHMe]], the IC50 worked out at 11 nM and the Emax amounted to 101%.

Consider `CC(C)C[C@]1(C)NC(=O)[C@H](Cc2ccc3ccccc3c2)NC(=O)[C@H](Cc2ccc(OCCN)cc2)NC(=O)[C@@H]2CCC(=O)N[C@@H](CCCCNC(=O)CC[C@@H](C(=O)NCCCCc3cccnc3)NC1=O)C(=O)N[C@@H](CO)C(=O)N[C@@H](C(C)C)C(=O)N[C@@H](Cc1c[nH]c3ccccc13)C(=O)N[C@@H](CCC(N)=O)C(=O)N2` [Compound 30, K(1c)(6c)^†SVWQE(6c)[Y(2-aminoethoxy)][2-Nal][2-Me-Leu]E(1c)-[NH-4-(pyridin-3-yl)butanyl]], for which the “% displacement (hIL-23R NIuc)” value came to 101% and the IC50 turned out to be 20 nM.

For `CNC(=O)[C@H](Cc1cccnc1)NC(=O)[C@H](CCN)NC(=O)[C@@H]1CCCNC(=O)CC[C@@H]2NC(=O)CC[C@H](NC(=O)[C@H](CCC(N)=O)NC(=O)[C@H](Cc3c[nH]c4ccccc34)NC(=O)[C@H]([C@@H](C)O)NC2=O)C(=O)N[C@@H](Cc2ccc(OCCN)cc2)C(=O)N[C@@H](Cc2ccc3ccccc3c2)C(=O)N[C@@](C)(CC(C)C)C(=O)N1` [Compound 40, E(1c)(6c)^†TWQE(6c)[Y(2-aminoethoxy)][2-Nal][2-Me-Leu][Orn](1c)[Dab][3-(3-Pyridyl)-Ala]-[NHMe]], the Emax came out at 100%.
